Measured values: patent publication US11208400B2, “Substituted 6-(1H-pyrazol-1-yl)pyrimidin-4-amine derivatives and uses thereof” (Bayer Aktiengesellschaft, priority 2016, dated 2021)

Target: T1, human Npt2a (Homo sapiens, UniProt Q06495)
T1 construct: expressed in transfected cells
T1 sequence (Q06495 1-639): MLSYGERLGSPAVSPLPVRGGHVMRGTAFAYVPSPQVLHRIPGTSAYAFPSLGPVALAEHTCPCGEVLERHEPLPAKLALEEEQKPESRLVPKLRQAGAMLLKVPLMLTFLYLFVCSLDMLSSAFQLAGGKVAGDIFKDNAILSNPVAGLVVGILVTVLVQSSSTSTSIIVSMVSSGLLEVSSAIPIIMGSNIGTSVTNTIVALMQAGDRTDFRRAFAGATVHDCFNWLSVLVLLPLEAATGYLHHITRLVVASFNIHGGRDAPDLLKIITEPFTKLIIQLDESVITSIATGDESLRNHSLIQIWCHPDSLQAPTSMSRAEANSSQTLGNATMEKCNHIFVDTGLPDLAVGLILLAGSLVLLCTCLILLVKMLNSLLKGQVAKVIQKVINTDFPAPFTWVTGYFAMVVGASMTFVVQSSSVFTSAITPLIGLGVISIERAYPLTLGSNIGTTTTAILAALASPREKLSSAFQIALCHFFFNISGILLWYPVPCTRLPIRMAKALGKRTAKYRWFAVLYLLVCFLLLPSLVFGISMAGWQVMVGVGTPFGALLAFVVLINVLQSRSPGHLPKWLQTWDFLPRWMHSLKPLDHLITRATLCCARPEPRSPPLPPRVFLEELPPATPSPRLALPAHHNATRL
Test: Npt2a activity cell based assay, membrane potential dye, CHO T-REx hNpt2a cells
Settings: doxycycline-induced, depolarization by sodium phosphate influx, average or median values if tested more than once
Outline: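 Doxycycline-induced (0.5 μg/mL, 24 h) CHO T-REx cells were loaded with membrane potential dye in sodium-free NHE buffer (pH 7.4) and exposed to compound (50 μM–1 nM, 5 min, room temperature).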

Compared with Cc1nn(-c2cc(Nc3nn(C)c(-c4ccccc4)c3C)ncn2)c(C)c1Cl [Example 84, 6-(4-chloro-3,5-dimethyl-1H-pyrazol-yl)-N-(1,4-dimethyl-5-phenyl-1H-pyrazol-3-yl)pyrimidin-4-amine], Cc1nn(-c2cc(Nc3nn(C)c(-c4ccc(F)cc4)c3C)ncn2)c(C)c1F [Example 267, 6-(4-fluoro-3,5-dimethyl-1H-pyrazol-1-yl)-N-[5-(4-fluorophenyl)-1,4-dimethyl-1H-pyrazol-3-yl]pyrimidin-4-amine] is 2.8-fold lower in IC50: 75.5 nM for the first, 27 nM for the second.

Compared with Cc1cc(C)n(-c2cc(Nc3c(C)c(-c4ccc(Cl)cc4)nn3CC3CC3)ncn2)n1 [Example 312, N-[3-(4-chlorophenyl)-1-(cyclopropylmethyl)-4-methyl-1H-pyrazol-5-yl]-6-(3,5-dimethyl-1H-pyrazol-1-yl)pyrimidin-4-amine], CCc1c(-c2ccc(F)cc2)nn(CC2CCC2)c1Nc1cc(-n2nc(C)cc2C)ncn1 [Example 182, N-[1-(cyclobutylmethyl)-4-ethyl-3-(4-fluorophenyl)-1H-pyrazol-5-yl]-6-(3,5-dimethyl-1H-pyrazol-1-yl)pyrimidin-4-amine] is 11-fold higher in IC50: 10 nM for the first, 106 nM for the second.

Going from Cc1nn(-c2cc(Nc3c(C)c(-c4ccc(F)cn4)nn3CC3CC3)ncn2)c(C)c1C(C)(C)O [Example 458, 2-[1-(6-{[1-(cyclopropylmethyl)-3-(5-fluoropyridin-2-yl)-4-methyl-1H-pyrazol-5-yl]amino}pyrimidin-4-yl)-3,5-dimethyl-1H-pyrazol-4-yl]propan-2-ol] to Cc1nn(-c2cc(Nc3c(C)c(-c4ccc(F)cc4F)nn3CC3CC3)ncn2)c(C)c1C(C)(C)O [Example 368, 2-[1-(6-{[1-(cyclopropylmethyl)-3-(2,4-difluorophenyl)-4-methyl-1H-pyrazol-5-yl]amino}pyrimidin-4-yl)-3,5-dimethyl-1H-pyrazol-4-yl]propan-2-ol], the IC50 falls from 1550 nM to 7 nM (220-fold).

First: CCc1c(Nc2cc(-n3nc(C)c(CN4CC(F)C4)c3C)ncn2)nn(C)c1-c1ccc(F)cc1 [Example 296, N-[4-ethyl-5-(4-fluorophenyl)-1-methyl-1H-pyrazol-3-yl]-6-{4-[(3-fluoroazetidin-1-yl)methyl]-3,5-dimethyl-1H-pyrazol-1-yl}pyrimidin-4-amine]
Second: Cc1nn(-c2cc(Nc3nn(C)c(-c4ccc(F)cc4)c3Cl)ncn2)c(C)c1C(C)(C)O [Example 276, 2-[1-(6-{[4-chloro-5-(4-fluorophenyl)-1-methyl-1H-pyrazol-3-yl]amino}pyrimidin-4-yl)-3,5-dimethyl-1H-pyrazol-4-yl]propan-2-ol]
The IC50 of the first is 4.7-fold higher: 117 nM for the first, 25 nM for the second.

First: CCCN1Cc2cn(-c3cc(Nc4c(C)c(-c5ccc(F)cc5)nn4CC4CC4)ncn3)nc2C1 [Example 523, N-[1-(cyclopropylmethyl)-3-(4-fluorophenyl)-4-methyl-1H-pyrazol-5-yl]-6-(5-propyl-5,6-dihydropyrrolo[3,4-c]pyrazol-2(4H)-yl)pyrimidin-4-amine]
Second: Cc1nn(-c2cc(Nc3c(C)c(-c4ccc(F)cc4)nn3CC3CC3)ncn2)c(C)c1S(C)(=O)=O [Example 423, N-[1-(cyclopropylmethyl)-3-(4-fluorophenyl)-4-methyl-1H-pyrazol-5-yl]-6-[3,5-dimethyl-4-(methylsulfonyl)-1H-pyrazol-1-yl]pyrimidin-4-amine]
The IC50 of the first is 13-fold higher: 690 nM for the first, 55 nM for the second.

Compared with Cc1nn(-c2cc(Nc3c(C)c(-c4ccc(C#N)cc4)nn3CC3CC3)ncn2)c(C)c1C#N [Example 352, 1-(6-{[3-(4-cyanophenyl)-1-(cyclopropylmethyl)-4-methyl-1H-pyrazol-5-yl]amino}pyrimidin-4-yl)-3,5-dimethyl-1H-pyrazole-4-carbonitrile], COc1ccc(-c2nn(CC3CC3)c(Nc3cc(-n4nc(C)c(C#N)c4C)ncn3)c2C)cc1 [Example 483, 1-(6-{[1-(cyclopropylmethyl)-3-(4-methoxyphenyl)-4-methyl-1H-pyrazol-5-yl]amino}pyrimidin-4-yl)-3,5-dimethyl-1H-pyrazole-4-carbonitrile] is 50-fold higher in IC50: 25 nM for the first, 1250 nM for the second. The first is the more potent here.

First: Cc1nn(-c2cc(Nc3c(C)c(-c4ccc(C#N)cc4)nn3CC3CC3)ncn2)c(C)c1C(O)C(F)(F)F (single isomer, unassigned) [Example 359, 4-{1-(cyclopropylmethyl)-5-[(6-{3,5-dimethyl-4-[2,2,2-trifluoro-1-hydroxyethyl]-1H-pyrazol-1-yl}pyrimidin-4-yl)amino]-4-methyl-1H-pyrazol-3-yl}benzonitrile]
Second: COc1c(-c2ccc(C#N)cc2)nn(CC2CC2)c1Nc1cc(-n2nc(C)c(C(C)O)c2C)ncn1 (racemic) [Example 331, (±)-4-{1-(cyclopropylmethyl)-5-[(6-{4-[(1S)-1-hydroxyethyl]-3,5-dimethyl-1H-pyrazol-1-yl}pyrimidin-4-yl)amino]-4-methoxy-1H-pyrazol-3-yl}benzonitrile]
The IC50 of the first is 190-fold lower: 15 nM for the first, 2800 nM for the second. The first is the more potent here.

Compared with Cc1cc(C(F)F)n(-c2cc(Nc3nn(C)c(-c4ccc(F)cc4)c3OC(F)F)ncn2)n1 [Example 412, N-[4-(difluoromethoxy)-5-(4-fluorophenyl)-1-methyl-1H-pyrazol-3-yl]-6-[5-(difluoromethyl)-3-methyl-1H-pyrazol-1-yl]pyrimidin-4-amine], CCc1c(-c2ccc(F)cc2)nn(C2CC2)c1Nc1cc(-n2nc(C)cc2C)ncn1 [Example 119, N-[1-cyclopropyl-4-ethyl-3-(4-fluorophenyl)-1H-pyrazol-5-yl]-6-(3,5-dimethyl-1H-pyrazol-1-yl)pyrimidin-4-amine] is 72-fold higher in IC50: 12 nM for the first, 870 nM for the second. The first is the more potent here.

Going from Cc1nn(-c2cc(Nc3nn(C)c(-c4ccc(F)cc4F)c3Cl)ncn2)c(C)c1Cl [Example 56, N-[4-chloro-5-(2,4-difluorophenyl)-1-methyl-1H-pyrazol-3-yl]-6-(4-chloro-3,5-dimethyl-1H-pyrazol-1-yl)pyrimidin-4-amine] to Cc1nn(-c2cc(Nc3nn(CC4CC4)c(-c4ccc(F)cc4)c3Cl)ncn2)c(C)c1C(C)(C)O [Example 160, 2-[1-(6-{[4-chloro-1-(cyclopropylmethyl)-5-(4-fluorophenyl)-1H-pyrazol-3-yl]amino}pyrimidin-4-yl)-3,5-dimethyl-1H-pyrazol-4-yl]propan-2-ol], the IC50 rises from 20.5 nM to 1110 nM (54-fold).

Compared with COC(=O)Nc1c(C)nn(-c2cc(Nc3c(C)c(-c4ccc(F)cc4)nn3CC3CC3)ncn2)c1C [Example 556, methyl [1-(6-{[1-(cyclopropylmethyl)-3-(4-fluorophenyl)-4-methyl-1H-pyrazol-5-yl]amino}pyrimidin-4-yl)-3,5-dimethyl-1H-pyrazol-4-yl]carbamate], Cc1nn(-c2cc(Nc3c(C)c(-c4ccc(C(F)(F)F)cc4)nn3CC3CC3)ncn2)c(C)c1C(C)(C)O [Example 292, 2-{1-[6-({1-(cyclopropylmethyl)-4-methyl-3-[4-(trifluoromethyl)phenyl]-1H-pyrazol-5-yl}amino)pyrimidin-4-yl]-3,5-dimethyl-1H-pyrazol-4-yl}propan-2-ol] is 3.4-fold lower in IC50: 810 nM for the first, 240 nM for the second.

Cc1nn(-c2cc(Nc3c(C)c(-c4ccc(OC(F)(F)F)cc4)nn3CC3CC3)ncn2)c(C)c1C(C)(C)O [Example 289, 2-{1-[6-({1-(cyclopropylmethyl)-4-methyl-3-[4-(trifluoromethoxy)phenyl]-1H-pyrazol-5-yl}amino)pyrimidin-4-yl]-3,5-dimethyl-1H-pyrazol-4-yl}propan-2-ol] gave an IC50 of 23 nM.
